The results in this text go back to patent publication US20150238487A1, “NOVEL ERGOLINE DERIVATIVES AND USES THEREOF” (MAP Pharmaceuticals, Inc., priority 2012, published 2015).

The target in one test is T1, Adrenergic α2B (Homo sapiens, UniProt P18089).
T1 construct: expressed in transfected cells; host or cells: CHO-K1 (membrane extracts)
As to the kind of experiment: GTPγ[35S] assay, Adrenergic α2B. The class given is biochemical. To be noted: antagonism, CHO-K1 membranes, read-out: Activity (Antagonism: IC50), Adrenergic a2B. Here is the method: (§1) Receptor […] activity assays were performed using 8′OH-2-CF3-dihydroergotamine (8′OH-2-CF3-DHE). Table 1 summarizes the cell lines (CHO-K1/HEK293 transfected with relevant human receptor) and the assays performed to detect any agonist or antagonist activity.
(§2) GTPγS studies were conducted to monitor agonist activity for 8′OH-2CF3-dihydroergotamine (8′OH-2CF3-DHE) against the receptors indicated in Table 1 above. Reagents used were the following: Assay buffer (20 mM HEPES, pH 7.4; 100 mM NaCl; 10 μg/mL saponin; 30 mM MgCl2); Membranes (recombinant human receptor membrane extracts were thawed on ice and diluted in assay buffer to give 1000 μg/mL ([…]) and kept on ice); GDP (diluted in assay buffer to give 30 μM solution (3 μM final concentration); beads (PVT-WGA (Amersham, RPNQ001), diluted in assay buffer at 25 mg/mL (0.25 mg/10 μL)); GTPγ^35S (Perkin Elmer, NEG030X), diluted in assay buffer to give 0.1 nM (final concentration); and ligand (agonist/antagonist diluted in assay buffer).
(§3) Membranes were mixed with GDP (1:1) and incubated for at least 15 minutes on ice. In parallel GTPγ^35S was mixed with the beads (1:1) just before starting the reaction. […] The plates were then centrifuged for 10 minutes at 2000 rpm and incubated at room temperature for 1 hour and counted for 1 min/well with a Perkin Elmer TopCount reader.

Another test has as its target T2, Serotonin 5-HT1D (Homo sapiens, UniProt P28221).
T2 construct: expressed in transfected cells; host or cells: CHO-K1 (membrane extracts)
In words: GTPγ[35S] assay, Serotonin 5-HT1D. The following applies: agonism, CHO-K1 membranes. The class given is biochemical. On the procedure: as §1, §2, §3

The next test has as its target T3, Serotonin 5-HT1F (Homo sapiens, UniProt P30939).
T3 construct: expressed in transfected cells; host or cells: CHO-K1
As to the kind of experiment: cAMP HTRF assay, Serotonin 5-HT1F. The format is cell-based. To be noted: CHO-K1, cAMP. On the procedure:
as §1
cAMP HTRF (Gi) studies were conducted to monitor activity for 8′OH-2CF3-dihydroergotamine (8′OH-2CF3-DHE) against the receptors indicated in Table 1 above. Cells expressing the human recombinant receptor of interest were grown in media without antibiotic and detached by gentle flushing with PBS-EDTA (5 mM EDTA), recovered by centrifugation and resuspended in assay buffer (KRH: 5 mM KCl, 1.25 mM MgSO4, 124 mM NaCl, 25 mM HEPES, 13.3 mM glucose, 1.25 mM KH2PO4, 1.45 mM CaCl2, 0.5 g/L BSA). Dose response curves were performed in parallel with the reference compounds. For agonist tests (96-well plates), 12 μL of cells was mixed with 6 μL of the test compound at increasing concentrations and 6 μL of forskolin and then incubated for 30 minutes at room temperature. Lysis buffer was added and after a 1 hour incubation, cAMP concentrations was determined according to the manufacturer specification with the HTRF kit. […] Lysis buffer was added and after a 1 hour incubation, cAMP concentrations were determined according to the manufacturer specification, with the HTRF kit.

The test system of test [1] is VIP/PACAP (PAC1/VPAC1/VPAC2). In words: Aequorin assay, VIP/PACAP receptors. The format is cell-based, human. The following applies: CHO-AEQ. Here is the method: as §1
Aequorin assays were conducted to monitor activity for 8′OH-2CF3-dihydroergotamine (8′OH-2CF3-DHE) against the receptors indicated in Table 1 above (except for mGlu3 and mGlu5). CHO-K1 cells coexpressing mitochondrial apoaequorin and the recombinant human receptor of interest were grown to mid-log phase in culture media without antibiotics and then detached with PBS-EDTA, centrifuged and resuspended in assay buffer (DMEM/HAM's F12 with HEPES, without phenol red+0.1% BSA, protease free) at a concentration of 1×10^6 cell/mL. […]
50 μL of the cell suspension was mixed with 50 μL of test or reference agonist in a 96-well plate. The resulting emission of light was recorded using Hamamatsu Functional Drug Screening System 6000 (FDSS 6000) luminometer. […]
To standardize the emission of recorded light (and determine of the “100% signal”) across plates and across different experiments, some wells contained 100 μM digitonin or a saturating concentration of ATP (20 μM).

The subject of test [2] is Somatostatin (SST1 ~ SSTS). As to the kind of experiment: GTPγ[35S] assay, Somatostatin receptors. The class given is biochemical, human. The following applies: CHO-K1 membranes. On the procedure: as §1, §2, §3

T2 sequence (P28221 whole entry): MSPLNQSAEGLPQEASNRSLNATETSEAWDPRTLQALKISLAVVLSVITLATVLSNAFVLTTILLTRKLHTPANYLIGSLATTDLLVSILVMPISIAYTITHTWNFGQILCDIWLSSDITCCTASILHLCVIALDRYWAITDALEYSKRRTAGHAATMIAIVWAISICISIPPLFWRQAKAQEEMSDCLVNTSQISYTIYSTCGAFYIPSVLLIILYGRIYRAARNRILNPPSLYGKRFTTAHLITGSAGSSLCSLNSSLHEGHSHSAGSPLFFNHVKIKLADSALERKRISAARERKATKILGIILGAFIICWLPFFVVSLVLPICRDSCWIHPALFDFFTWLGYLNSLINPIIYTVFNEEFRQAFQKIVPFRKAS
T1 sequence (P18089 whole entry): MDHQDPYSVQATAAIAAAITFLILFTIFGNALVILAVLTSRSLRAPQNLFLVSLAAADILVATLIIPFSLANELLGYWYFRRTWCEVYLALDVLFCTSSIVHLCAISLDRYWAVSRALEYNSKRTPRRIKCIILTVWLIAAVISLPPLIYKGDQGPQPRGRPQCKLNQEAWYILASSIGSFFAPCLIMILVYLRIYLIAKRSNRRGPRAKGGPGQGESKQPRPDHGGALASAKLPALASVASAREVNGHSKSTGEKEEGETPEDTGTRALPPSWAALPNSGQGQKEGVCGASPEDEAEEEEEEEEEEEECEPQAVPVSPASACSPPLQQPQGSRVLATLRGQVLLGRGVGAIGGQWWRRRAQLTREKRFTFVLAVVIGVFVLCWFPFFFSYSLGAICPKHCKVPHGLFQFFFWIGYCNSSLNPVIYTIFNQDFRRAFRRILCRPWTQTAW
T3 sequence (P30939 whole entry): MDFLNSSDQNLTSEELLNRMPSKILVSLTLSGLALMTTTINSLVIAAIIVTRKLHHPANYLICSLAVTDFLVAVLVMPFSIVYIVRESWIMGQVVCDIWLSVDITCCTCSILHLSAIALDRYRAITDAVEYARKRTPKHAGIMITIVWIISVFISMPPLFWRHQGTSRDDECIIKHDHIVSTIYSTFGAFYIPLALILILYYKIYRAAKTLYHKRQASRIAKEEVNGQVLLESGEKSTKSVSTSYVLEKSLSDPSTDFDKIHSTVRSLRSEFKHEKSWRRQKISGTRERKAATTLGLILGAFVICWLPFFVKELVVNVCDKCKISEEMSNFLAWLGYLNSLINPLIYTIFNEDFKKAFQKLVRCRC

Turning to `CN1C[C@H](C(=O)N[C@]2(C)O[C@@]3(O)[C@@H]4CC[C@@H](O)N4C(=O)[C@H](Cc4ccccc4)N3C2=O)C[C@@H]2c3cccc4[nH]c(C(F)(F)F)c(c34)C[C@H]21` [8′OH-2-CF3-DHE, 8′-Hydroxy-2-CF3-dihydroergotamine], on Adrenergic α2B, the IC50 was found to be 777 nM. At Serotonin 5-HT1D, this compound came in with an EC50 of 5.27 nM. In addition, the “Activity (Agonism: EC50; Antagonism: IC50), 5-HT1F” value on Serotonin 5-HT1F was “Inactive”. Moreover, in test [1], the “Activity (Agonism: EC50; Antagonism: IC50), VIP/PACAP (PAC1/VPAC1/VPAC2)” value is on record as “Inactive”. Further, the “Activity (Agonism: EC50; Antagonism: IC50), Somatostatin (SST1 ~ SSTS)” value in test [2] is “Inactive”.
